The record followed here is patent US6586183B2, “Association of β2-adrenergic receptor haplotypes with drug response” (Genaissance Pharmaceuticals, Inc., priority 2000, dated 2003).

The test deals with asthma patients. In words: Bronchodilator response (spirometry, FEV1) of asthma patients to inhaled albuterol, by β2AR haplotype pair. The test is classed as in vivo, human. Here is the method:
The patients in the asthma cohort were enrolled from an outpatient facility as described in detail elsewhere (Yan, L., Galinsky, R. E., Bernstein, J. A., Liggett, S. B. & Weinshilboum, R. M. (1999) Pharmacogenetics in Press). […] Forced expiratory volume in 1 second (FEV1) and forced vital capacity (FVC) were determined in triplicate. The predicted values for these measurements were calculated based on standard algorithms (Morris, J. F., Koski, A. & Johnson, L. C. (1971) Am Rev Respir Dis 103, 57-67).
The association between changes in % predicted FEV1 and haplotype pair was assessed by fitting an analysis of covariance model (ANCOVA) with terms for haplotype pair, sex and baseline severity. P-values from pairwise comparisons by haplotype pair were adjusted for multiple comparisons by applying the Holm-Sidak step-down procedure (Ludbrook, J. (1998) Clin and Exp Pharmacology & Physiology 25, 1032-1037.). […] In addition, the African-American asthma patients were excluded from the analysis due to the low number of individuals in this population group. For the analysis of individual SNPs, a similar ANCOVA model was employed with a discrete term for SNP genotype, and terms for sex and baseline severity. The Holm-Sidak step-down procedure was used to adjust the p-values from the individual SNP analyses for the number of tests performed.
Pairwise tests were made while correcting for multiple comparisons. […] For this analysis, a similar ANCOVA model as above was utilized. […] Since 0, 1 or 2 copies of these two haplotypes are present in our population as haplotype pairs 2/2, 2/4 and 4/4, a potential gene dose effect can be assessed by regression analysis.

For `CC(C)(C)NCC(O)c1ccc(O)c(CO)c1` (stereo not drawn) [albuterol], the “bronchodilator response to albuterol” value (asthmatic patients with haplotype pair 2/6) was “moderate bronchodilator response”; the “bronchodilator response to albuterol” value (asthmatic patients with haplotype pairs 2/2 and 4/6) was “respond well”; the “bronchodilator response to albuterol” value (asthmatic patients with haplotype pairs 2/4 and 4/4) was “little to no response”.
